One block for each molecule: values may come before it.
Assays:
patients = assay: Clinical analysis of serum GDF-15 (ELISA) versus platelet counts in patients treated with Compound A; assay type: in vivo, human; conditions: 21 patients, continuous three times weekly oral administration; preliminary analysis (FIG. 3)
Description: Patients were treated with (5)-1-(4-Chloro-phenyl)-7-isopropoxy-6-methoxy-2-(4-{methyl-[4-(4-methyl-3-oxo-piperazin-1-yl)-trans-cyclohexylmethyl]-amino}-phenyl)-1,4-dihydro-2H-isoquinolin-3-one (Compound A). Dose range was from 10 to 500 mg three times a week (3QW) with continuous or 2 week on 1 week off dosing regimen. Serum samples were collected from each subject at pre-dose and from 0.5 to 6 h post-dose on the first treatment day.
The serum level of GDF-15 expression was measured using enzyme-linked immunosorbent assay (ELISA; R&D Systems kit DGD150).
Clinical data (including platelet counts) were collected from all patients during the course of the treatment period.
Maximum observation period was 448 days on available platelet data.
A preliminary data analysis of (S)-1-(4-Chloro-phenyl)-7-isopropoxy-6-methoxy-2-(4-{methyl-[4-(4-methyl-3-oxo-piperazin-1-yl)-trans-cyclohexylmethyl]-amino}-phenyl)-1,4-dihydro-2H-isoquinolin-3-one effect on GDF-15 and platelet counts for 21 patients treated on a continuous three times weekly oral administration of (S)-1-(4-Chloro-phenyl)-7-isopropoxy-6-methoxy-2-(4-{methyl-[4-(4-methyl-3-oxo-piperazin-1-yl)-trans-cyclohexylmethyl]-amino}-phenyl)-1,4-dihydro-2H-isoquinolin-3-one was conducted. The conducted data analysis is represented in a plot on FIG. 3. In this plot, each point represents an individual patient. […]

[1] = tested on: patients with liposarcomas; conditions: cited from earlier work
animal model = conditions: cited from earlier work
thrombopoesis = conditions: previous studies; cited from earlier work
[2] = tested on: patients with solid tumors; assay: Maximum change of platelet and neutrophil count versus GDF-15 fold change in patients with solid tumors receiving compound of formula I; assay type: in vivo, human; conditions: regimen 1A (q3w) 12.5-350 mg or regimen 1B 120 mg
Description: Maximum change of platelet count (FIG. 7) and neutrophil count (FIG. 8) and the GDF-15 values were determined for patients with solid tumors receiving compound of formula I, i.e. (S)-5-(5-Chloro-1-methyl-2-oxo-1,2-dihydro-pyridin-3-yl)-6-(4-chloro-phenyl)-2-(2,4-dimethoxy-pyrimidin-5-yl)-1-isopropyl-5,6-dihydro-1H-pyrrolo[3,4-d]imidazol-4-one, on the first day of a three week cycle (herein also referred to as regimen 1A or q3w) in doses of 12.5 mg (A), 25 mg (B), 50 mg (C), 100 mg (D), 200 mg (E), 250 mg (F), 350 mg(G) or on the first and eighth day of a 4 week cycle (herein also referred to as regimen 1B) in a dose of 120 mg (I). The left graphs show the maximum platelet count change vs. GDF-15 fold change, the GDF-15 being measured on day 1 of the first cycle (C1D1). The right graphs show the maximum platelet count change vs. GDF-15 fold change.
The platelet/neutrophil count was determined before receipt of first dose (baseline) and on day 1, 7 and 15 of the first and second cycle for regimen 1A (A-G) or on day 1, 8, 14, 22 of the first and second cycle for regimen 1B (I) and the maximum platelet change value in comparison to the baseline was selected. The “Change of platelet/neutrophile counts” value is calculated as post-baseline value minus baseline value and given in number of platelets/neutrophils per microliter of blood. […]

cycle 1 day 1 GDF-15 increase from baseline associated with a higher occurrence of platelet counts dropping below 150 G/L (grade 1 thrombocytopenia CTCAE V4) (patients): more than 25%
SMILES: COc1cc2c(cc1OC(C)C)[C@H](c1ccc(Cl)cc1)N(c1ccc(N(C)C[C@H]3CC[C@H](N4CCN(C)C(=O)C4)CC3)cc1)C(=O)C2 [Compound A, (S)-1-(4-Chloro-phenyl)-7-isopropoxy-6-methoxy-2-(4-{methyl-[4-(4-methyl-3-oxo-piperazin-1-yl)-trans-cyclohexylmethyl]-amino}-phenyl)-1,4-dihydro-2H-isoquinolin-3-one]

SMILES: CCOc1cc(C(C)(C)C)ccc1C1=N[C@@](C)(c2ccc(Cl)cc2)[C@@](C)(c2ccc(Cl)cc2)N1C(=O)N1CCN(CCCS(C)(=O)=O)CC1 [RG7112]
major dose-limiting toxicity ([1]; RG7112 administration): thrombocytopenia
patients with induced thrombocytopenia ([1]; single-agent RG-7112, patients with liposarcomas): 40 % of patients
time course of drug-induced thrombocytopenia (animal model): occurred rather late during the treatment period and persisted after drug discontinuation
effect on thrombopoesis (thrombopoesis): impairs thrombopoesis

correlation of GDF-15 increase with platelet count change ([2]; seen already for GDF-15 C1D1 24 h post-dose (FIG. 7)): correlates with a decrease
correlation of GDF-15 increase with neutrophil count change ([2]; seen already for GDF-15 C1D1 24 h post-dose (FIG. 8)): correlates with a decrease
SMILES: COc1ncc(-c2nc3c(n2C(C)C)[C@H](c2ccc(Cl)cc2)N(c2cc(Cl)cn(C)c2=O)C3=O)c(OC)n1 [compound of formula I, (S)-5-(5-Chloro-1-methyl-2-oxo-1,2-dihydro-pyridin-3-yl)-6-(4-chloro-phenyl)-2-(2,4-dimethoxy-pyrimidin-5-yl)-1-isopropyl-5,6-dihydro-1H-pyrrolo[3,4-d]imidazol-4-one]
